Source: patent US11419902B2, “Compositions comprising bacterial strains” (4D Pharma Research Limited, priority 2018, dated 2022)

Columns and labels:
PBMCs = assay: Cytokine analysis of PBMCs from healthy donors (multiplex immunoassay); format: cell-based, human; settings: PBMC culture, 10% bacteria supernatant, 72 h
Method: Frozen healthy human PBMCs were purchased from Stem Cells Technologies (Cambridge UK). Briefly cells were thaw and left to rest overnight in full growth media (RPMI 1640 with 10% FBS, 2 mM L. Glutamine, 55 μM 2-Mercapoethanol and 100 U/ml penicillin, 100 μg/ml streptomycin) in CO2 incubator at 37° C. For the experiment cells were plated at a density of 750,000 Cell/well in 48 well plates and treated in full growth media with 10% bacteria supernatants in the presence or absence of 1 ng/ml LPS. Cell culture media was added to untreated wells. Cells were left to rest for 72 h, thereafter cell free supernatants were collected and spun down for 3 minutes at 10,000 g at 4° C. Samples were stored at −80° C. for cytokine analysis.
PBMCs were treated as described in Example 5.
Cytokine quantification was conducted using a ProcartaPlex multiplex immunoassay following the manufacturer's recommendations (Thermo Fischer Scientific). Briefly, 50 μl of cell-free co-culture supernatants were used for cytokine quantification using a MAGPIX® MILLIPLEX® system (Merck) with the xPONENT software (Luminex, Austin, Tex., USA). Data was analysed using the MILLIPLEX® analyst software (Merck) using a 5-parameter logistic curve and background subtraction to convert mean fluorescence intensity to pg/ml values.

TLR-4, CD11b = assay: Gene expression of inflammatory markers in brain tissue (qPCR); format: in vivo, BALBc mice; settings: oral gavage 1×10^9 CFU for 6 consecutive days
Method: BALBc (Envigo, UK) adult male mice were group housed under a 12 h light-dark cycle; standard rodent chow and water were available ad libitum. All experiments were performed in accordance with European guidelines following approval by University College Cork Animal Ethics Experimentation Committee. Animals were 8 weeks old at the start of the experiment.
Animals were allowed to habituate to their holding room for one week after arrival into the animal unit. They receive oral gavage (200 μL dose) of live biotherapeutics at a dose of 1×10^9 CFU for 6 consecutive days between 15:00 and 17:00. On day 7, the animals are decapitated, and tissues are harvested for experimentation. […]
Total RNA was extracted using the mirVana™ miRNA Isolation kit (Ambion/Llife technologies, Paisley, UK) and DNase treated (Turbo DNA-free, Ambion/life technologies) according to the manufacturers recommendations. RNA was quantified using NanoDrop™ spectrophotometer (Thermo Fisher Scientific Inc., Wilmington, Del., USA) according to the manufacturer's instructions. RNA quality was assessed using the Agilent Bioanalyzer (Agilent, Stockport, UK) according to the manufacturer's procedure and an RNA integrity number (RIN) was calculated. […] Quantitative PCR was carried out using probes (6 carboxy fluorescein—FAM) designed by Applied Biosystems to mouse specific targeted genes, while using β-actin as an endogenous control. […]

[1] = tested on: ERK signalling (phosphorylated ERK1 and 2/total ERK); assay: ERK signalling in SKMEL28 cell line (Western blot); format: cell-based; settings: SKMEL28, relative to the negative control (YFCA+)
Method: Following 24 h treatment with the appropriate drugs either in presence of 10% bacterial supernatant or absence (YCFA+), protein extracts were obtained by lysing cells in RIPA buffer (R0278; Sigma Aldrich) supplemented with protease inhibitors (cOmplete Protease Inhibitor Cocktail Tablets; Roche, Switzerland) and 1 mM/L sodium orthovanadate, 0.5 mM/L PMSF. Protein quantification was done by the BCA protein assay. Equal amounts of total protein (20 μg/lane) were then separated by SDS-PAGE on 4-15% gradient gel (BioRad) and transferred to polyvinylidene difluoride (PVDF) membranes (Thermo Fisher Scientific, Loughborough). […]
Proteins of interest were detected with the appropriate HRP-conjugated secondary antibody (1:10,000, Thermo Fisher Scientific, Loughborough), developed with the ECL Western blotting Super Signal PicoPlus substrate (34577; Thermo Fisher Scientific, Loughborough), and visualised in Chemidoc XRS Imager (BioRad).
The effects of the following treatments were assessed on the SKMEL28 melanoma cell line (V600E oncogenic mutation in BRAF): (1) MRx0029; (2) Vemurafenib (VEMU) in YCFA+ medium; (3) VEMU and MRx0029; (4) Azacytidine-C (Aza-c) in YCFA+ medium; (5) Aza-c and MRX0029; (6) VEMU, Aza-c and MRx0029.

Megasphaera massiliensis MRx0029
expression of IL-1β (PBMCs): increased the expression | expression of IL-6 (PBMCs): increased the expression | expression of IL-10 (PBMCs): increased the expression | expression of IL-23 (PBMCs): increased the expression | expression of MIP-3α (PBMCs): increased the expression | expression of TNF-α (PBMCs): increased the expression | expression of CD11b in the amygdala (TLR-4, CD11b): increased expression of CD11b | expression of TLR-4 in the amygdala (TLR-4, CD11b): significantly increased the expression of TLR-4 | ERK signalling [1]: reduced ERK signalling
